The values below come from patent US5495046A, “Alkoxyphenylalkylamine derivatives” (Taisho Pharmaceutical Co., Ltd., priority 1991, dated 1996).

One experiment addresses sigma receptor (Rattus norvegicus, UniProt Q9R0C9). Briefly: biochemical. The format is binding, rat (male Wistar). The protocol: (§1) Receptor Binding Experiment
(§2) As test animals, male Wistar rats were used.
(§3) As a [^3 H]-labeled ligand, (+)[^3 H]3-PPP [3-(3-hydroxyphenyl)-N-n-propylpiperidine] was used for sigma receptor, while (-)[^3 H] sulpiride was used for D2 receptor.
(§4) Binding reactions with the use of these [^3 H]-labeled ligands were performed respectively in accordance with the following methods (1) and (2) described in Molecular Pharmacology, 32, p. 772 (1987) and Journal of Pharmacy and Pharmacology, 32, p. 820 (1987).
(1) (+) [^3 H] 3-PPP binding: A membrane preparation obtained from the whole brain of rat, (+) [^3 H] 3-PPP and a test drug were reacted in a 50 mM Tris hydrochloride buffer (pH 8.0) at 21° C. for 90 minutes.
(§5) After the completion of each reaction, the reaction mixture was filtered under sucking onto a glass filter (GF/B) and the radioactivity of the filter paper was measured with a liquid scintillation spectrometer.
The data obtained by reacting in the presence of 10 μM (+) 3-PPP and 10 μM (-) thiapride were regarded respectively as the nonspecific binding of (+) [^3 H] 3-PPP and (-) [^3 H] sulpiride. Then the difference between the total binding and the nonspecific binding was referred to as the specific binding.

Another experiment addresses D2 receptor (Rattus norvegicus, UniProt P61169). Nature of the experiment: Receptor binding experiment: (-)[3H] sulpiride binding. On the set-up: species or system rat (male Wistar). The protocol:
as §1, §2, §3, §4
(2) (-) [^3 H] sulpiride binding: A membrane preparation obtained from the corpus striatum of rat, (-) [^3 H] sulpiride and a test drug were reacted in a 50 mM Tris hydrochloride buffer (pH 7.7) at 37° C. for 10 minutes.
as §5
The data obtained by reacting in the presence of 10 μM (+) 3-PPP and 10 μM (-) thiapride were regarded respectively as the nonspecific binding of (+) [^3 H] 3-PPP and (-) [^3 H] sulpiride. Then the difference between the total binding and the nonspecific binding was referred to as the specific binding. The [^3 H]-labeled ligand at a definite concentration and the test drug at various concentrations were reacted under the conditions as specified in the above (1) or (2) to thereby give an inhibition curve.

For experiment [1], the system named is (+) SKF 10047-induced abnormal behaviors. Briefly: Antagonism against (+) SKF 10047-induced abnormal behaviors. It is filed as in vivo, ICR male mice. Conditions: Mus musculus. The protocol:
Examination on Antagonism Against (+) SKF 10047-induced Abnormal Behaviors
Preparations were formulated by dissolving 10 mg of each test drug in 1 ml of dimethylsulfoxide, diluting with physiological saline to a concentration of […], and further diluting the obtained solution to 0.01 and 0.001 mg/kg (administration dose: 0.1 ml per 10 g body weight of mouse).
The invention compound A, the comparative drug AA and Rimcazole were each orally administered in doses of 0.03, 0.1, 0.3, 1.0, 3.0 and 10.0 mg/kg. Preparations were formulated by suspending in a 5% solution of acacia.
(+) SKF10047 [(+)-N-allylnormetazocine hydrochloride; manufactured by Sigma] was intraperitoneally administered in a dose of 30 mg/kg. The preparation was formulated by dissolving in physiological saline.
As test animals, ICR male mice (Nippon Charles River) aged 4 to 5 weeks were used. Each group had 10 animals.
Each animal was introduced into a transparent acrylic resin cage (24 cm in length×17.5 cm in width×12 cm in height) and allowed to fully adapt to the environment. 35 minutes after the administration of a preparation of a test drug, (+) SKF10047 was administered. […]] were evaluated for 40 minutes at intervals of 5 minutes and the ED25 (mg/kg) was determined.

[2] abbreviates: (+)[3H]3-PPP, rat whole brain membrane, pH 8.0, 21° C., 90 minutes.
Where [3] appears, read: read-out: 50% inhibitory concentration (IC50), D2, (-)[3H] sulpiride, rat corpus striatum membrane, pH 7.7, 37° C., 10 minutes.
Where [4] appears, read: read-out: 50% inhibitory concentration (IC50), Sigma, (+)[3H]3-PPP, rat whole brain membrane, pH 8.0, 21° C., 90 minutes.
Where [5] appears, read: (-)[3H] sulpiride, rat corpus striatum membrane, pH 7.7, 37° C., 10 minutes.

The structures appear in SMILES notation. Where a name gives a salt, the structure may show the parent alone. Read-outs that look alike come from different tables or passages of the source.

Chain of sigma receptor (Q9R0C9 whole entry): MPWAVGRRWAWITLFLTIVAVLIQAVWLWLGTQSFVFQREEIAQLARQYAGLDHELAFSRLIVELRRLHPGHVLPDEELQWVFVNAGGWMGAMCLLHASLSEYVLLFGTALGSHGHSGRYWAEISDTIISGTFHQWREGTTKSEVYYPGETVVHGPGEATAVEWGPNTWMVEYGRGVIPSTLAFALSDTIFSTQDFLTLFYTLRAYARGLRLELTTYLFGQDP
Chain of D2 receptor (P61169 whole entry): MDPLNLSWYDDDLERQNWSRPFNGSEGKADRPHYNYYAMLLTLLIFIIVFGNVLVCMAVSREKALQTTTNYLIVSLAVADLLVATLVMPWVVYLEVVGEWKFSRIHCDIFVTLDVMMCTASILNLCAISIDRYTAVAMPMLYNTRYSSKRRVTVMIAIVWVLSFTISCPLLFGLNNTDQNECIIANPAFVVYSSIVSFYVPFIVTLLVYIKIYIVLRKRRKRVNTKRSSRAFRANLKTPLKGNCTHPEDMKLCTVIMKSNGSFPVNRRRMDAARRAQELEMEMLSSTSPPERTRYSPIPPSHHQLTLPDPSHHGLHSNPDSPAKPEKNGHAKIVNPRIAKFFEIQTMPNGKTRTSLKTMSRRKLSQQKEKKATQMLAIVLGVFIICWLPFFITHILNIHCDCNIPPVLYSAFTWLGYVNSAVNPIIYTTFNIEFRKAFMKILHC

The molecule `CCCN1CCCC(c2cccc(O)c2)C1` (single isomer, unassigned) [Compound 3-PPP, 3-(3-hydroxyphenyl)-N-n-propylpiperidine, reference compound] displayed an IC50 on sigma receptor (setting [2]) of 24.3 nM.
On to `CCCN(CCC)CCc1cc(Cl)ccc1OCCc1ccccc1.O=C(O)C(=O)O` [A, N,N-Di-n-propyl-2-[5-chloro-2-(2-phenylethoxy)phenyl]ethylamine oxalate], for which the IC50 at D2 receptor (setting [3]) amounted to 112 nM; at sigma receptor (setting [4]), 7.21 nM. The same molecule had an ED25 in experiment [1] (po) of 235 µg/kg.
As for `COc1ccc(CCN(C)C)cc1OCc1ccccc1.Cl` [AA, N,N-dimethyl-2-(4-methoxy-3-benzyloxyphenyl)ethylamine hydrochloride, reference compound], the IC50 worked out at 40800 nM at D2 receptor and 94.4 nM against sigma receptor. For the same molecule, in experiment [1] (po), the ED25 worked out at 23600 µg/kg.
`CCCN(CCC)CCCc1cc(Cl)ccc1OCCc1ccccc1` [B, N,N-Di-n-propyl-3-[5-chloro-2-(2-phenylethoxy)phenyl]propylamine oxalate]: the IC50 on D2 receptor (setting [5]) is above 1000 nM; at sigma receptor (setting [2]), 28.9 nM.
Regarding `CCCN(CCC)CCCCc1cc(Cl)ccc1OCCc1ccccc1` [C, N,N-Di-n-propyl-4-[5-chloro-2-(2-phenylethoxy)phenyl]butylamine oxalate], on sigma receptor (setting [2]), the IC50 stood at 26.4 nM.
On to `CCCN(CCC)CCc1ccc(Cl)cc1OCCc1ccccc1` [D, N,N-Di-n-propyl-2-[4-chloro-2-(2-phenylethoxy)phenyl]ethylamine hydrochloride], for which the IC50 was found to be 1450 nM at D2 receptor and 17.9 nM on sigma receptor (setting [4]).
For the molecule `CCCN(CCC)CCc1cc(Br)ccc1OCCc1ccccc1` [E, N,N-Di-n-propyl-2-[5-bromo-2-(2-phenylethoxy)phenyl]ethylamine oxalate], the IC50 worked out at 169 nM on D2 receptor (setting [3]) and 11.1 nM on sigma receptor (setting [4]).
Turning to `CCCN(CCC)CCCc1cc(Br)ccc1OCCc1ccccc1` [F, N,N-Di-n-propyl-3-[5-bromo-2-(2-phenylethoxy)phenyl]propylamine oxalate], the values for the IC50 on D2 receptor (setting [3]) and at sigma receptor (setting [4]) were 438 nM and 10.9 nM, respectively.
On to `CCCN(CCC)CCc1cc(F)ccc1OCCc1ccccc1` [G, N,N-Di-n-propyl-2-[5-fluoro-2-(2-phenylethoxy)phenyl]ethylamine hydrochloride], for which the IC50 on D2 receptor came to 1910 nM; at sigma receptor, 13.3 nM.
Taken in the same sequence, the figures for `CCCN(CCC)CCc1cccc(F)c1OCCc1ccccc1` [H, N,N-Di-n-propyl-2-[3-fluoro-2-(2-phenylethoxy)phenyl]ethylamine oxalate] were 3520 nM and 21.6 nM.
`CCCN(CCC)CCc1ccc(OC)c(OCCc2ccccc2)c1.O=C(O)C(=O)O` [I, N,N-Di-n-propyl-2-[4-methoxy-3-(2-phenylethoxy)phenyl]ethylamine oxalate] yielded an IC50 at D2 receptor above 1000 nM. In experiment [1] (po), this molecule registered an ED25 of 0.8 µg/kg.
For `CCCN(CCC)CCCc1ccc(OC)c(OCCc2ccccc2)c1.O=C(O)C(=O)O` [J, N,N-Di-n-propyl-3-[4-methoxy-3-(2-phenylethoxy)phenyl]propylamine oxalate], the IC50 on D2 receptor (setting [3]) worked out at 950 nM; against sigma receptor (setting [2]) it was 0.984 nM. For the same molecule, in experiment [1] (oral, 35 minutes before (+) SKF10047 30 mg/kg i.p., stereotypy scores for 40 minutes at intervals of 5 minutes, read-out: ED25), the ED25 came out at 2.63 µg/kg.
Turning to `CCCN(CCC)CCc1ccc(OC)c(OCCCc2ccccc2)c1` [K, N,N-Di-n-propyl-2-[4-methoxy-3-(3-phenylpropoxy)phenyl]ethylamine oxalate], the IC50 on sigma receptor (setting [4]) worked out at 4.7 nM.
Turning to `COc1ccc(CCN2CCN(c3ccccc3)CC2)cc1OCCc1ccccc1` [L, N-2-[4-Methoxy-3-(2-phenylethoxy)phenyl]ethyl-N'-phenylpiperazine oxalate], the IC50 at D2 receptor (setting [3]) is 183 nM; at sigma receptor (setting [4]), 33 nM.
With `CCCN(CCC)CCc1ccc(O)c(OCCc2ccccc2)c1` [M, N,N-Di-n-propyl-2-[4-hydroxy-3-(2-phenylethoxy)phenyl]ethylamine hydrochloride], the IC50 on D2 receptor was 2500 nM; on sigma receptor (setting [4]) it was 3.09 nM.
As for `CCCN(CCC)CCc1ccc(OC)c(OCCc2ccc(F)cc2)c1` [N, N,N-Di-n-propyl-2-[4-methoxy-3-[2-(4-fluorophenyl)ethoxy]phenyl]ethylaminehydrochloride], the IC50 was above 10000 nM at D2 receptor (setting [5]) and 1.03 nM on sigma receptor.
With `CCCN(CCC)CCc1ccc(OC)c(OCCc2cccc(Cl)c2)c1` [O, N,N-Di-n-propyl-2-[4-methoxy-3-[2-(3-chlorophenyl)ethoxy]phenyl]ethylamineoxalate], the IC50 on D2 receptor (setting [5]) amounted to 6600 nM; on sigma receptor (setting [4]) it was 1.49 nM.
Consider `CCCN(CCC)CCc1ccc(OC)c(OCCc2ccc(OC)cc2)c1` [P, N,N-Di-n-propyl-2-[4-methoxy-3-[2-(4-methoxyphenyl)ethoxy]phenyl]ethylamine oxalate], for which the IC50 on D2 receptor turned out to be 4990 nM; at sigma receptor it was 1.03 nM.
Take `CCCN(CCC)CCc1ccc(OC)c(OCCc2cccs2)c1` [Q, N,N-Di-n-propyl-2-[4-methoxy-3-[2-(2-thienyl)ethoxy]phenyl]ethylamine hydrochloride]: the values for the IC50 at D2 receptor and at sigma receptor (setting [4]) were above 10000 nM and 9.35 nM, respectively.
As for `CCCN(CCC)CCc1ccc(OCCc2ccccc2)c(OC)c1` [R, N,N-Di-n-propyl-2-[3-methoxy-4-(2-phenylethoxy)phenyl]ethylamine oxalate], the figures for the IC50 at D2 receptor and on sigma receptor were above 10000 nM and 11.5 nM, respectively.
Consider `CCCN(CCCO)CCc1ccc(OC)c(OCCc2ccccc2)c1` [S, N-n-propyl-N-3-hydroxypropyl-2-[4-methoxy-3-(2-phenylethoxy)phenyl]ethylamine oxalate], for which the IC50 on D2 receptor (setting [5]) was above 10000 nM; against sigma receptor (setting [2]), 18.5 nM.
For `CCCN(CCC)CCc1cccc(OC)c1OCCc1ccccc1.O=C(O)C(=O)O` [T, N,N-Di-n-propyl-2-[3-methoxy-2-(2-phenylethoxy)phenyl]ethylamine oxalate], the figures for the IC50 on D2 receptor and on sigma receptor (setting [4]) were above 10000 nM and 2.71 nM, respectively. This molecule displayed an ED25 in experiment [1] (po) of 1.7 µg/kg.
Turning to `CCCN(CCC)CCCc1cccc(OC)c1OCCc1ccccc1` [U, N,N-Di-n-propyl-3-[3-methoxy-2-(2-phenylethoxy)phenyl]propylamine oxalate], the IC50 against sigma receptor (setting [2]) was found to be 12.5 nM.
In turn, `CCCN(CCC)CCc1cccc(OC)c1OCCCc1ccccc1` [V, N,N-Di-n-propyl-2-[3-methoxy-2-(3-phenylpropoxy)phenyl]ethylamine oxalate] returned an IC50 on sigma receptor of 1.65 nM.
With `COc1cccc(CCN2CCCC2)c1OCCc1ccccc1` [W, N-2-[3-Methoxy-2-(2-phenylethoxy)phenyl]ethylpyrrolidine oxalate], the IC50 at D2 receptor came to 5350 nM.
Regarding `CCCN(CCC)CCc1cc(OC)ccc1OCCc1ccccc1` [X, N,N-Di-n-propyl-2-[5-methoxy-2-(2-phenylethoxy)phenyl]ethylamine hydrochloride], the IC50 on D2 receptor (setting [3]) worked out at 791 nM; at sigma receptor (setting [4]), 7.06 nM.
For the molecule `CCCN(CCC)CCc1ccc(OC)cc1OCCc1ccccc1` [Y, N,N-Di-n-propyl-2-[4-methoxy-2-(2-phenylethoxy)phenyl]ethylamine oxalate], the IC50 at D2 receptor stood at 2350 nM; at sigma receptor (setting [4]), 6.6 nM.
Taken in the same sequence, the figures for `CCCN(CCC)CCc1ccc(OCCc2ccccc2)cc1OC` [Z, N,N-Di-n-propyl-2-[2-methoxy-4-(2-phenylethoxy)phenyl]ethylamine oxalate] were 9180 nM and 6.83 nM.
